Data: paper PMC9403717, “Ruthenium complexes show potent inhibition of AKR1C1, AKR1C2, and AKR1C3 enzymes and anti-proliferative action against chemoresistant ovarian cancer cell line” (Frontiers in Pharmacology, 2022)
“And” between values parts separate entries of the source, which are not always exact repeats. Equal values may be shown once.

System: COV362 cells
Experiment: Cell proliferation assay (alamarBlue), chemoresistant ovarian cancer cell line COV362
Type: cell-based, human
Settings: for IC50: 48 h incubation
Procedure: The cell line COV362 (CVCL_2,420) was originally established from a high-grade ovarian serous adenocarcinoma from a metastatic site in the pleural effusion ([van den Berg-Bakker et al., 1993]) and was purchased from ECACC (ECACC 07071910) as p37 on 13 October 2017. The growth medium for COV362 cells was DMEM (D5546; Sigma–Aldrich GmbH), with 10% FBS (F9665; Sigma–Aldrich GmbH) and 2 mM L-glutamine (G7513; Sigma–Aldrich GmbH). COV362 cells in passages p37 + 12 to p37 + 17 were used in this study and seeded at a concentration of 3.5 cells/ml × 10^4 cells/ml for proliferation studies and at a concentration of 5.3 × 10^5/ml for migration studies. The cell line OVCAR-4 (CVCL_1,627) is a high-grade serous ovarian adenocarcinoma cell line established from a patient refractory to cisplatin ([Johnson et al., 1997]). The cell line was purchased from Merck on 19 March 2021. The growth medium for OVCAR-4 cells was RPMI-1640 (Sigma R5586) supplemented with 2 mM glutamine (G7513; Sigma–Aldrich GmbH), 10% FBS (F9665; Sigma–Aldrich GmbH), 0.25 μg/ml insulin (I9278; Sigma–Aldrich GmbH). OVCAR-4 cells in passages p+6 to p+15 were used in this study and seeded at a concentration of 6 cells/ml × 10^4 cells/ml. The control cell line HIO80 (CVCL_E274) was obtained from Andrew K. Godwin (University of Kansas Medical Center, Kansas, United States) on 20 October 2017 as p+72. It was originally established from ovarian surface epithelium ([Yang et al., 2004]). HIO80 cells were grown in RPMI medium (R5886, Sigma–Aldrich GmbH) supplemented with 10% FBS (F9665; Sigma–Aldrich GmbH), 2 mm L-glutamine (G7513; Sigma–Aldrich GmbH) and 6.6 µg/ml insulin (I9278; Sigma–Aldrich GmbH). HIO80 cells in passages p72 + 8 to p72 + 19 were used in this study and seeded at a concentration of 2 × 10^4 cells/mL. HIO80 in passage +10 was authenticated by short tandem repeats (STR) profiling performed by ATCC on 22 February 2019. Cells were grown in a humidified atmosphere containing 5% CO2 at 37°C. All cell lines were negative for mycoplasma infection which was periodically tested using MycoAlert^TM mycoplasma detection kit (Lonza, Basel, Switzerland).
The effect of ruthenium compounds on the proliferation of ovarian cancer cell lines COV362 and OVCAR-4 and the control cell line HIO80 was analyzed using the cell proliferation reagent alamarBlue HS (A50101; Thermo Fisher Scientific) following the manufacturer’s instructions.
Cells were seeded in 96-well plates in 100 µL of medium and allowed to adhere and grow for 24 h. […] Cisplatin and carboplatin purchased from Sigma–Aldrich GmbH (cat. number: PHR1624, lot: LRAB7778) and (cat. number: C2538, lot: MKCK1243) were dissolved in sterile water. Working solutions were prepared by a serial dilution of stock solutions with a culture medium. After the initial incubation, cells were treated with ruthenium complexes, cisplatin, and carboplatin. A range of final concentrations between 0.001 and 300 µM were used for ruthenium complexes and cisplatin, and between 0.001 µM and 1 mM for carboplatin. After 48 h of incubation, plates were incubated with 20 µL of alamarBlue. After 4 h absorbance was measured with a BioTek microplate spectrophotometer at 570 nm, with the reference wavelength set at 600 nm. First, the background value of a well containing the active substance without cells was subtracted, then the average values for duplicates/triplicates were calculated. The absorbance of the well containing only untreated cells was used as a normalization control. The half-maximal […] concentration (IC50) was determined for all ruthenium complexes with a growth-inhibiting effect on cells by constructing a dose-response curve (Graph Pad Prism, Version 8.0).

Structure (SMILES)	IC50	effect on proliferation (in words)
Cc1ccc(C(C)C)cc1.O=C(C=C([O][Ru][Cl])c1ccc(I)cc1)C(F)(F)F [Compound 1]	96.6 µM	
C1N2CN3CN1CP(C2)C3.Cc1ccc(C(C)C)cc1.F[P-](F)(F)(F)(F)F.O=C(C=C([O][Ru+])c1ccc(I)cc1)C(F)(F)F [Compound 2]	141 µM	
CN(C)c1ccc(C(=CC(=O)C(F)(F)F)[O][Ru][Cl])cc1.Cc1ccc(C(C)C)cc1 [Compound 3, (η^6-p-cymene)chlorido(4,4,4-trifluoro-1-(4-(dimethylamino)phenyl)-1,3-butandionato)ruthenium(II)]	< 100 µM and 90.2 µM	
Cc1ccc(C(C)C)cc1.O=C(C=C([O][Ru][Cl])c1ccc2c(c1)OCO2)C(F)(F)F [Compound 5]	136 µM	
C1N2CN3CN1CP(C2)C3.Cc1ccc(C(C)C)cc1.F[P-](F)(F)(F)(F)F.O=C(C=C([O][Ru+])c1ccc2c(c1)OCO2)C(F)(F)F [Compound 6]	152 µM	
Cc1ccc(C(C)C)cc1.[Cl-].[O-]c1c(I)cc(Cl)c2cccnc12.[Ru+2] [Compound 7]	17.7 µM	
C1N2CN3CN1CP(C2)C3.Cc1ccc(C(C)C)cc1.F[P-](F)(F)(F)(F)F.[O-]c1c(I)cc(Cl)c2cccnc12.[Ru+2] [Compound 8]	38 µM	
Cc1ccc(C(C)C)cc1.O=[N+]([O-])c1ccc([O][Ru][Cl])c2ncccc12 [Compound 9, (η ^6-p-Cymene) (nitroxolinato)chloridoruthenium (II)]	21.5 µM	
C1N2CN3CN1CP(C2)C3.Cc1ccc(C(C)C)cc1.F[P-](F)(F)(F)(F)F.O=[N+]([O-])c1ccc([O][Ru+])c2ncccc12 [Compound 10, (η ^6-p-cymene)(nitroxolinato)(pta)ruthenium(II) hexafluorophosphate]	> 200 µM	inactive
